From patent US12396949B2, “Technology for improving properties of lipid nanoparticles using lipids in which cis-unsaturated bonds are substituted with a silicon atom” (The Regents of the University of California, priority 2022, dated 2025)
“And” between values parts separate entries of the source, which are not always exact repeats. Equal values may be shown once.

Experiments:
[1] = Average size of liposomes made from cationic silyl lipids (Tables 1A, 1B); type: physicochemical; settings: for Avg size: Table 1B, sila-DOTMA analog liposomes; for Avg. Size: Table 1A, liposome formulations of the cationic silyl lipid only in Milli Q purified water
From the text: (§1) For colloidal dispersions, zeta potential is a useful measurement of the difference in electrokinetic potential between the dispersion medium and the stationary layer of fluid attached to the dispersed particle. The magnitude of the zeta potential indicates the degree of electrostatic repulsion between adjacent, similarly charged particles in a dispersion. A high zeta potential is an indicator of stability (resistance to aggregation). Both zeta potential and size can be determined using a zeta Potential Analyzer. Clogston J D et al., Methods Mol Biol. 2011; 697:63-70.
(§2) FIGS. 5A to 5C and TABLE 1A provide an illustration of such empirical determination: the effect of the length of the lipid tail, the end group, and the positioning of the silyl group. In this illustration, other properties of the lipid structure and liposome composition were kept constant. The liposome formulations just contained the cationic silyl lipids indicated, and Milli Q™ purified water.
(§3) FIGS. 7A to 7C and TABLE 1B provide another illustration of how structure of the silyl lipid can affect properties of nanoparticles.
(§4) Structural features such as tail length, positioning of the silicon group (n1, n2), and branching (as in 8,Si, (8)3-DOTMA) can influence liposome properties.

[2] = Average zeta potential of liposomes made from cationic silyl lipids (Tables 1A, 1B); type: physicochemical
From the text: as §1, §2, §3, §4

[3] = Table 1B, sila-DOTMA analog liposomes, two values given
[4] = Table 1A, liposome formulations of the cationic silyl lipid only in Milli Q purified water

Row | Structure (SMILES) | Avg size [1] [nm] | Avg. zeta Potential [2, 3] | Avg. Size [1] [nm] | Avg. zeta Potential [2, 4]
1 | CCCCCC[Si](C)(C)CCCCCCCCCCOCC(C[N+](C)(C)C)OCCCCCCCCCC[Si](C)(C)CCCCCC (centres unmarked) [10, Si, 6-DOTMA] | 65 | 52 mV |  | 
2 | C[N+](C)(C)CC(COC(=O)CCCCCCC[Si](C)(C)c1ccccc1)OC(=O)CCCCCCC[Si](C)(C)c1ccccc1 (centres unmarked) [QP8SiPh] |  |  | 21 | 59 mV and 73 mV
3 | CCCCCCCC[Si](C)(C)CCCCCCCCOCC(C[N+](C)(C)C)OCCCCCCCC[Si](C)(C)CCCCCCCC (centres unmarked) [8, Si, 8-DOTMA] | 206 | 56 mV and 74 mV |  | 
4 | C[N+](C)(C)CC(COC(=O)CCCC[Si](C)(C)C1CCCCC1)OC(=O)CCCC[Si](C)(C)C1CCCCC1 (centres unmarked) [QP5SiCy] |  |  | 80 | 71 mV and 124 mV
5 | C[N+](C)(C)CC(COCCCCCCCC[Si](C)(C)c1ccccc1)OCCCCCCCC[Si](C)(C)c1ccccc1 (centres unmarked) [8, Si, Ph-DOTMA] | 215 | 62 mV |  | 
6 | CCCC[Si](C)(C)CCCCC(=O)OCC(C[N+](C)(C)C)OC(=O)CCCC[Si](C)(C)CCCC (centres unmarked) [QP5Si4] |  |  | 21 | 65 mV
7 | CCCCCCCC[Si](C)(C)CCCCC(=O)OCC(C[N+](C)(C)C)OC(=O)CCCC[Si](C)(C)CCCCCCCC (centres unmarked) [QP5Si8] |  |  | 38 | 69 mV and 112 mV
